# From patent EP3641735B1, “PHARMACEUTICAL TABLET COMPOSITION COMPRISING BILASTINE FORM 3 AND A WATER-SOLUBLE FILLER” (Alfred E. Tiefenbacher (GmbH & Co. KG), priority 2017, dated 2019)
# Assays:
# [1] = neat forms; 1 month at 25°C/60%RH and at 40°C/75%RH; cited from earlier work
# [2] = Polymorphic analysis of API by XRD before and after micronisation (jet milling); format: physicochemical
# Excerpt: For example, two from five batches of micronized API have shown the contamination of form 2 with form 3 and dihydrate form A.
SMILES,polymorphic stability on storage [1],polymorphic form of API after micronisation (XRD) ([2]; listed as Bilastine form 3),polymorphic form of API after micronisation (XRD) ([2]; listed as polymorphic form 2)
"CCOCCn1c(C2CCN(CCc3ccc(C(C)(C)C(=O)O)cc3)CC2)nc2ccccc21 [Alpha, 2-[4-(2-(4-(1-(2-ethoxyethyl)-1H-benzimidazol-2-yl)piperidin-1-yl)ethyl)phenyl]-2-methylpropionic acid]",stable on storage,–,–
"CCOCCn1c(C2CCN(CCc3ccc(C(C)(C)C(=O)O)cc3)CC2)nc2ccccc21 [form 3, 2-[4-(2-(4-(1-(2-ethoxyethyl)-1H-benzimidazol-2-yl)piperidin-1-yl)ethyl)phenyl]-2-methylpropionic acid]",converted partially into the form 1,remains in the polymorphic form 3 without changes,–
"CCOCCn1c(C2CCN(CCc3ccc(C(C)(C)C(=O)O)cc3)CC2)nc2ccccc21 [form 1, 2-[4-(2-(4-(1-(2-ethoxyethyl)-1H-benzimidazol-2-yl)piperidin-1-yl)ethyl)phenyl]-2-methylpropionic acid]",stable on storage,–,–
"CCOCCn1c(C2CCN(CCc3ccc(C(C)(C)C(=O)O)cc3)CC2)nc2ccccc21 [Eta, 2-[4-(2-(4-(1-(2-ethoxyethyl)-1H-benzimidazol-2-yl)piperidin-1-yl)ethyl)phenyl]-2-methylpropionic acid]",stable on storage,–,–
"CCOCCn1c(C2CCN(CCc3ccc(C(C)(C)C(=O)O)cc3)CC2)nc2ccccc21 [form 2, 2-[4-(2-(4-(1-(2-ethoxyethyl)-1H-benzimidazol-2-yl)piperidin-1-yl)ethyl)phenyl]-2-methylpropionic acid]",stable on storage,–,presence of form 3 and dihydrate form A as polymorphic impurities
